Test results: ChEMBL document CHEMBL2417501, “Synthesis of 4-aminoquinoline-pyrimidine hybrids as potent antimalarials and their mode of action studies” (Eur J Med Chem, 2013)

Experiments:
[1] = Selectivity index, ratio of CC50 for MDCK cells to IC50 for chloroquine-resistant Plasmodium falciparum Dd2; assay type: functional
Influenza A virus [2] = assay: Antiviral activity against influenza A virus H1N1 subtype infected in dog MDCK cells assessed as reduction of virus-induced cytopathogenicity by MTS assay; assay type: functional, organism-based
Coxsackievirus [3] = assay: Antiviral activity against Coxsackievirus B4 infected in human HeLa cells assessed as reduction of virus-induced cytopathogenicity; assay type: functional, organism-based
Plasmodium falciparum [4] = assay: Antimalarial activity against chloroquine-resistant Plasmodium falciparum Dd2; assay type: functional, organism-based
MDCK = assay: (§1) Cytotoxicity against MDCK cells assessed as cell viability after 4 days by MTS assay; assay type: cell-based, Canis lupus familiaris; details: dog, mdck, 96 h
[5] = as §1; assay type: cell-based, Canis lupus familiaris; details: dog, MDCK cells
[6] = tested on: Vesicular stomatitis virus; assay: Antiviral activity against Vesicular stomatitis virus infected in human HEL cells assessed as reduction of virus-induced cytopathogenicity; assay type: functional, organism-based
[7] = tested on: Mammalian orthoreovirus 1; assay: Antiviral activity against Reovirus-1 infected in african green monkey Vero cells assessed as reduction of virus-induced cytopathogenicity; assay type: functional, organism-based; details: Mammalian orthoreovirus 1, Vero
Coxsackievirus [8] = assay: Antiviral activity against Coxsackievirus B4 infected in african green monkey Vero cells assessed as reduction of virus-induced cytopathogenicity; assay type: functional, organism-based
[9] = Inhibition of beta-hematin formation at 1 mg/ml; assay type: functional
Human alphaherpesvirus 1 [10] = assay: Antiviral activity against TK-negative Herpes simplex virus 1 KOS infected in human HEL cells assessed as reduction of virus-induced cytopathogenicity; assay type: functional, organism-based; details: Human alphaherpesvirus 1, KOS
Human alphaherpesvirus 3 [11] = assay: Antiviral activity against […] Varicella-zoster virus 07-1 infected in human HEL cells assessed as reduction of plaque formation; assay type: functional, organism-based; details: Human alphaherpesvirus 3, 07-1, HEL
Felid alphaherpesvirus 1 = assay: Antiviral activity against feline herpesvirus infected in cat CRFK cells assessed as reduction of virus-induced cytopathogenicity by MTS assay; assay type: functional, organism-based; details: Felid alphaherpesvirus 1, CRFK
Human alphaherpesvirus 3 [12] = assay: Antiviral activity against TK-positive Varicella-zoster virus OKA infected in human HEL cells assessed as reduction of plaque formation; assay type: functional, cell-based; details: Human alphaherpesvirus 3, strain Oka vaccine
[13] = tested on: Vesicular stomatitis virus; assay: Antiviral activity against Vesicular stomatitis virus infected in human HeLa cells assessed as reduction of virus-induced cytopathogenicity; assay type: functional, organism-based
Cytomegalovirus [14] = assay: Antiviral activity against Cytomegalovirus AD-169 infected in human HEL cells assessed as reduction of plaque formation; assay type: functional, organism-based; details: Human betaherpesvirus 5, AD-169, HEL
Human respirovirus 3 = assay: Antiviral activity against Parainfluenza-3 virus infected in african green monkey Vero cells assessed as reduction of virus-induced cytopathogenicity; assay type: functional, organism-based; details: Human respirovirus 3, Vero
Plasmodium falciparum [15] = assay: Antimalarial activity against chloroquine-sensitive Plasmodium falciparum D10 by two-fold dilution technique; assay type: functional, organism-based
Cytomegalovirus [16] = assay: Antiviral activity against Cytomegalovirus Davis infected in human HEL cells assessed as reduction of plaque formation; assay type: functional, organism-based; details: Human betaherpesvirus 5, Davis
[17] = Cytotoxicity against human HeLa cells; assay type: cell-based
Sindbis virus = assay: Antiviral activity against Sindbis virus infected in african green monkey Vero cells assessed as reduction of virus-induced cytopathogenicity; assay type: functional, organism-based
Feline coronavirus = assay: Antiviral activity against Feline coronavirus infected in cat CRFK cells assessed as reduction of virus-induced cytopathogenicity by MTS assay; assay type: functional, organism-based; details: Alphacoronavirus 1, CRFK
[18] = Cytotoxicity against human HEL cells; assay type: cell-based
Influenza A virus [19] = assay: Antiviral activity against influenza A virus […] subtype infected in dog MDCK cells assessed as reduction of virus-induced cytopathogenicity by MTS assay; assay type: functional, organism-based
Influenza B virus = assay: Antiviral activity against influenza B virus infected in dog MDCK cells assessed as reduction of virus-induced cytopathogenicity by MTS assay; assay type: functional, organism-based
Human alphaherpesvirus 1 [20] = assay: Antiviral activity against Herpes simplex virus-1 KOS infected in human HEL cells assessed as reduction of virus-induced cytopathogenicity; assay type: functional, organism-based; details: Human alphaherpesvirus 1, KOS
[21] = tested on: Respiratory syncytial virus; assay: Antiviral activity against Respiratory syncytial virus infected in human HeLa cells assessed as reduction of virus-induced cytopathogenicity; assay type: functional, organism-based
Punta Toro virus = assay: Antiviral activity against […] infected in african green monkey Vero cells assessed as reduction of virus-induced cytopathogenicity; assay type: functional, organism-based
Human alphaherpesvirus 2 = assay: Antiviral activity against Herpes simplex virus-2 G infected in human HEL cells assessed as reduction of virus-induced cytopathogenicity; assay type: functional, organism-based; details: Human alphaherpesvirus 2, strain G
[22] = Cytotoxicity against cat CRFK cells; assay type: cell-based, Felis catus
[23] = Cytotoxicity against african green monkey Vero cells; assay type: cell-based; details: chlorocebus sabaeus

Row | SMILES | Ratio CC50/IC50 [1] | EC50 (Influenza A virus [2]) [µM] | EC50 (Coxsackievirus [3]) [µM] | IC50 (Plasmodium falciparum [4]) [nM] | MCC at 96 h [5] [µM] | EC50 [6] [µM] | EC50 [7] [µM] | EC50 (Coxsackievirus [8]) [µM] | inhibition [9] [%] | EC50 (Human alphaherpesvirus 1 [10]) [µM] | EC50 (Human alphaherpesvirus 3 [11]) [µM] | EC50 (Felid alphaherpesvirus 1) [µM] | EC50 (Human alphaherpesvirus 3 [12]) [µM] | EC50 [13] [µM] | EC50 (Cytomegalovirus [14]) [µM] | EC50 (Human respirovirus 3) [µM] | EC50 (Cytomegalovirus [16]) [µM] | EC50 (Feline coronavirus) [µM] | MCC [18] [µM] | EC50 (Influenza B virus) [µM] | other results
1 | COC(=O)c1c(C)nc(NCCCNc2ccnc3cc(Cl)ccc23)nc1-c1ccccc1 | 3.13 | > 0.16 | > 20 | 542 | 0.8 | > 20 | > 4 | > 4 | 46 | > 20 | > 4 | > 20 | > 4 | > 20 | 10.9 | > 4 | 15.3 | 1.1 | ≥ 20 | > 0.16 | CC50 (MDCK): 1.7 µM; IC50 (Plasmodium falciparum [15]): 659 nM; MCC [17]: 100 µM; EC50 (Sindbis virus): > 4 µM; EC50 (Influenza A virus [19]; read-out: EC50): > 160 nM; EC50 (Human alphaherpesvirus 1 [20]): > 20 µM; EC50 [21]: > 20 µM; EC50 (Punta Toro virus): > 4 µM; EC50 (Human alphaherpesvirus 2): > 20 µM; CC50 ([22]; crfk): 25.1 µM; MCC [23]: 20 µM
2 | NC12CC3CC(CC(C3)C1)C2 [AMANTADINE] | – | 17 | – | – | > 200 | – | – | – | – | – | – | – | – | – | – | – | – | – | – | > 200 | EC50 (Influenza A virus [19]): 300 nM
3 | CCOC(=O)c1cnc(NCCCCNc2ccnc3cc(Cl)ccc23)nc1C | 30.65 | > 4 | > 20 | 336 | ≥ 4 | > 100 | > 20 | > 20 | 58 | > 100 | > 20 | > 100 | > 20 | > 20 | > 20 | > 20 | > 20 | > 100 | ≥ 100 | > 4 | CC50 at 96 h [5]: 10.3 µM; IC50 (Plasmodium falciparum [15]): 211 nM; MCC [17]: 100 µM; EC50 (Sindbis virus): > 20 µM; EC50 (Influenza A virus [19]; read-out: EC50): > 4000 nM; EC50 (Human alphaherpesvirus 1 [20]): > 100 µM; EC50 [21]: > 20 µM; EC50 (Punta Toro virus): > 20 µM; EC50 (Human alphaherpesvirus 2): > 100 µM; CC50 ([22]; CRFK cells): > 100 µM; MCC [23]: 100 µM
4 | C[C@H]1[C@H](OC(=O)CCC(=O)O)O[C@@H]2O[C@@]3(C)CC[C@H]4[C@H](C)CC[C@@H]1[C@@]24OO3 [ARTESUNATE] | – | – | – | 31.2 | – | – | – | – | – | – | – | – | – | – | – | – | – | – | – | – | –
5 | CCOC(=O)c1c(C)nc(OCCCNc2ccnc3cc(Cl)ccc23)nc1-c1ccccc1 | 43.6 | > 4 | > 100 | 483 | 20 | > 100 | > 20 | > 20 | 87 | > 100 | > 4 | > 100 | > 4 | > 100 | 2 | > 20 | 2.53 | > 100 | > 4 | > 4 | CC50 (MDCK): 21.1 µM; MCC [17]: > 100 µM; EC50 (Sindbis virus): > 20 µM; EC50 (Influenza A virus [19]; read-out: EC50): > 4000 nM; EC50 (Human alphaherpesvirus 1 [20]): > 100 µM; EC50 [21]: > 100 µM; EC50 (Punta Toro virus): > 20 µM; EC50 (Human alphaherpesvirus 2): > 100 µM; CC50 ([22]; crfk): > 100 µM; MCC [23]: 100 µM
6 | Nc1nc2c(ncn2COC(CO)CO)c(=O)[nH]1 [GANCICLOVIR] | – | – | – | – | – | > 100 | – | – | – | 4 | – | – | – | – | 7.87 | – | 5.98 | > 100 | > 100 | – | CC50 ([22]; CRFK cells): > 100 µM
7 | Nc1ccn(C[C@@H](CO)OCP(=O)(O)O)c(=O)n1 [CIDOFOVIR] | – | – | – | – | – | > 250 | – | – | – | – | – | – | – | – | 0.86 | – | 1.84 | – | > 250 | – | –
8 | Nc1nc2c(ncn2COCCO)c(=O)[nH]1 [ACYCLOVIR] | – | – | – | – | – | > 250 | – | – | – | – | 144 | – | – | – | – | – | – | – | > 250 | – | –
